Test results reported in US9499519B2, “Fused pyrimidine compounds and use thereof” (Medivation Technologies, Inc., priority 2012, dated 2016).
Read-outs that look alike come from different tables or passages of the source.

Experiments:
[1] = tested on: Akt phosphorylation induced by IGF-1R; assay: Western blot analysis of Akt phosphorylation induced by IGF-1 in HT-29 cells; format: cell-based, Human; details: for Levels of phosphorylated AKT in treated cells (pAKT/actin): HT-29 cells, IGF-1; for p-AKT relative to levels with 0.1 nM compound: Table B2 lower part; for Normalized phosphorylated AKT (relative to actin) levels relative to 0.1 nM compound treatment: Table B2 upper part
Description: Inhibition of Akt phosphorylation induced by IGF-1R was studied by western blot analysis. Human colon carcinoma HT-29 cells were seeded at a density of 8×10^4 cells/well in a 24-well plate and grown in DME/F12 media containing 10% FBS for 24 h. The cells were then depleted of serum by incubation in DME/F12 media lacking FBS for 24 h. […] […] Lysed cells were centrifuged at 13,000 rpm for 15 min and the protein concentration soluble fraction (supernatant) of each sample was determined using a BCA protein assay (Pierce).

[2] = target: T1, IGF-1R (Homo sapiens, UniProt P08069); assay: In vitro IGF-1R enzymatic assay (ADP-Glo kinase assay); format: biochemical; details: activated IGF-1R, 30 nM, average
T1 construct: purchased Millipore 14-802
T1 sequence (P08069 31-1367): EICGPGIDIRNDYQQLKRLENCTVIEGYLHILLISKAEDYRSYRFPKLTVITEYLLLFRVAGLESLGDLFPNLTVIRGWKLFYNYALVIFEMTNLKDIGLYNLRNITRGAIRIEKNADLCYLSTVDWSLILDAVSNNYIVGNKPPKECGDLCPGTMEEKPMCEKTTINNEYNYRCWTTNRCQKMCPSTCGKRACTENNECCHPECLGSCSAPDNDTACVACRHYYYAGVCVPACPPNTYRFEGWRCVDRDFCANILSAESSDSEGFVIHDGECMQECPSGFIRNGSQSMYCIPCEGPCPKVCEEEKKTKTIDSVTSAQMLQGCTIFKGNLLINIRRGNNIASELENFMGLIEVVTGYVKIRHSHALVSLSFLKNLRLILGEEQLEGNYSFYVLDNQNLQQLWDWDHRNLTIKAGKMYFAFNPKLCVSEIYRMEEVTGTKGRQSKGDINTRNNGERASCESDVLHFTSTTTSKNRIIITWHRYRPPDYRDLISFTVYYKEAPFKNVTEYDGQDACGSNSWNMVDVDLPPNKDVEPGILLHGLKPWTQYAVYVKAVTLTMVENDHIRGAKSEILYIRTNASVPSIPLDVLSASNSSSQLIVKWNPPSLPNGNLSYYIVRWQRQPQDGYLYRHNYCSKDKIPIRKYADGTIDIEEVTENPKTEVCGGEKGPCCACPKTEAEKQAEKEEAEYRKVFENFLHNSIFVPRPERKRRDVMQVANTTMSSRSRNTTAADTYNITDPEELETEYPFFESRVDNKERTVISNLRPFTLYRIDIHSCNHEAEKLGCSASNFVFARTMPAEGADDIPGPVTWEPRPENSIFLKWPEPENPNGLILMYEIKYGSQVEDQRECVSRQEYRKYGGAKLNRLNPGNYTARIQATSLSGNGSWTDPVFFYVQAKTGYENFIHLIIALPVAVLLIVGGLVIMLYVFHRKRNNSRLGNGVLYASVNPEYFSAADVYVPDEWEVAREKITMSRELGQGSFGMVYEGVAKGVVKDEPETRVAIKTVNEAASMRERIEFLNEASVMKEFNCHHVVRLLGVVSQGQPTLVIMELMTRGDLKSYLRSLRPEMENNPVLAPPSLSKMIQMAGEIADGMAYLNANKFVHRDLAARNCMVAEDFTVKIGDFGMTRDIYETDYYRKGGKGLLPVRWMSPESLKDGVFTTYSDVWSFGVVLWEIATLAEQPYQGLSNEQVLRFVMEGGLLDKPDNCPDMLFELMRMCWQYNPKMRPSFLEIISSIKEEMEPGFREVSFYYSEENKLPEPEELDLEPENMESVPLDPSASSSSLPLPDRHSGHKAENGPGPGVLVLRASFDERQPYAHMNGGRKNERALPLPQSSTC
Description: (§1) IC50 values of the compounds of the invention against IGF-1R and IR were measured in vitro using an ADP-Glo kinase assay Kit (Promega). […] Kinase reactions in both assays were conducted at 30° C. for 20 min with increasing concentrations of compounds of the invention.
Additional compounds of the invention were screened against activated IGF-1R.

[3] = target: T2, IR (Homo sapiens, UniProt P06213); assay: In vitro IR enzymatic assay (ADP-Glo kinase assay); format: biochemical; details: activated IR, 30 nM; for % Inh @ 30 nM (N1) / % Inh @ 30 nM (N2): 0.03 µM
T2 construct: purchased Millipore 14-803
T2 sequence (P06213 28-1382): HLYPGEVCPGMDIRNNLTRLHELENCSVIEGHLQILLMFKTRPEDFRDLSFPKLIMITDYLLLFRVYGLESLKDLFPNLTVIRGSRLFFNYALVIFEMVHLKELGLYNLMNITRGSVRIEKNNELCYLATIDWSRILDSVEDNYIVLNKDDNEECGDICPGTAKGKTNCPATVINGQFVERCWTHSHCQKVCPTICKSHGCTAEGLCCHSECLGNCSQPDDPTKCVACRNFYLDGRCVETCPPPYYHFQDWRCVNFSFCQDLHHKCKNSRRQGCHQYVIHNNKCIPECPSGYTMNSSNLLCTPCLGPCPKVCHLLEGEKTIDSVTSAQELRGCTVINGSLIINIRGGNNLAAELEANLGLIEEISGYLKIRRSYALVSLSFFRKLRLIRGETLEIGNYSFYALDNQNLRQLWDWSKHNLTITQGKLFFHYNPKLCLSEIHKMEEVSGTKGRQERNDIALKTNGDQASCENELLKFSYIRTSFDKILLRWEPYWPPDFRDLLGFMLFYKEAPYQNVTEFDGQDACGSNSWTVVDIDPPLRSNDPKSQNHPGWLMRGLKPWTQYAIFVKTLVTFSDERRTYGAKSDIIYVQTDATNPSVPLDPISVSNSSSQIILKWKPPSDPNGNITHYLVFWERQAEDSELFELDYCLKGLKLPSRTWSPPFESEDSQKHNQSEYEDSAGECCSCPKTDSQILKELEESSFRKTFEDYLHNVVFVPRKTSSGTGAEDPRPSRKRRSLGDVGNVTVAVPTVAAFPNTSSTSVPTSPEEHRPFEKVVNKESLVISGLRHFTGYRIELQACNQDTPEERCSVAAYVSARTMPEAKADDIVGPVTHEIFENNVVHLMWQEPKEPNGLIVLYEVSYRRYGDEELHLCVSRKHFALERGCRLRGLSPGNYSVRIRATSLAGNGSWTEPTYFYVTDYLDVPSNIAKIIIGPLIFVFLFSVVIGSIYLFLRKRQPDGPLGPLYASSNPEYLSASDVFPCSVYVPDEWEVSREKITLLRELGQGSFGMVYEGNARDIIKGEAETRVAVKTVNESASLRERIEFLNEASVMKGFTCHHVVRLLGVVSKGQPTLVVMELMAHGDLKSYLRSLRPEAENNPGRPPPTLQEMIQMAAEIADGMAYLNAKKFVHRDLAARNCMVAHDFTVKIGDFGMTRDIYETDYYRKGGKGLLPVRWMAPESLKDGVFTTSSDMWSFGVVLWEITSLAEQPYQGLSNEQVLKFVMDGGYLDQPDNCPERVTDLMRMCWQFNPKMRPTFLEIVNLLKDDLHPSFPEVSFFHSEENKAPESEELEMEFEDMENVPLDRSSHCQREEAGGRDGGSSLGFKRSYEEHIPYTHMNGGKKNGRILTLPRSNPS
Description: as §1
Additional compounds of the invention were screened against activated IR.

Row | Compound | Levels of phosphorylated AKT in treated cells (pAKT/actin) ([1]; 0.1 nM compound) | p-AKT relative to levels with 0.1 nM compound ([1]; 0.1 nM) | Normalized phosphorylated AKT (relative to actin) levels relative to 0.1 nM compound treatment ([1]; 0.1 nM) | Levels of phosphorylated AKT in treated cells (pAKT/actin) ([1]; 1 nM compound) | p-AKT relative to levels with 0.1 nM compound ([1]; 1 nM) | Normalized phosphorylated AKT (relative to actin) levels relative to 0.1 nM compound treatment ([1]; 1 nM) | Levels of phosphorylated AKT in treated cells (pAKT/actin) ([1]; 10 nM compound) | p-AKT relative to levels with 0.1 nM compound ([1]; 10 nM) | Normalized phosphorylated AKT (relative to actin) levels relative to 0.1 nM compound treatment ([1]; 10 nM) | Levels of phosphorylated AKT in treated cells (pAKT/actin) ([1]; 100 nM compound) | p-AKT relative to levels with 0.1 nM compound ([1]; 100 nM) | Normalized phosphorylated AKT (relative to actin) levels relative to 0.1 nM compound treatment ([1]; 100 nM) | % Inh @ 30 nM Avg [2] | % Inh @ 30 nM (N1) ([3]; N1) | % Inh @ 30 nM (N2) ([3]; N2) | % Inh @ 30 nM Avg ([3]; average) | inhibition at 0.03 µM ([3]; N1, read-out: % Inh @ 30 nM (N1)) | inhibition at 0.03 µM ([3]; N2, read-out: % Inh @ 30 nM (N2)) | inhibition at 0.03 µM ([3]; average, read-out: % Inh @ 30 nM Avg)
1 | O=C(Nc1ccc(F)nc1)C1CC(O)CN1c1nc2c(c(Nc3cc(C4CC4)[nH]n3)n1)CCC2 (racemic) [Compound 10b, 1-(4-(5-cyclopropyl-1H-pyrazol-3-ylamino)-6,7-dihydro-5H-cyclopenta[d]pyrimidin-2-yl)-N-(6-fluoropyridin-3-yl)-4-hydroxypyrrolidine-2-carboxamide] | 2.21 | 1.0 | 1.0 | 2.75 | 1.2 | 1.2 | 1.71 | 0.8 | 0.8 | 1.66 | 0.8 | 0.8 | −11% |  |  |  |  |  | 
2 | O=C(Nc1ccc(F)nc1)[C@H]1[C@@H](O)CCN1c1nc2c(c(Nc3cc(C4CC4)[nH]n3)n1)CCC2 (single isomer, unassigned) [Compound 11a] | 1.83 | 1.0 | 1.0 | 1.55 | 0.8 | 0.8 | 1.43 | 0.8 | 0.8 | 1.58 | 0.9 | 0.9 |  | −17% | −9% | −13% |  |  | 
3 | CC(C)c1cc(Nc2nc(N3CCC[C@@H]3C(=O)Nc3ccc(F)nc3)nc3c2CCC3)on1 (single isomer, unassigned) [Compound 12a] | 4.17 | 1.0 | 1.0 | 3.33 | 0.8 | 0.8 | 2.91 | 0.7 | 0.7 | 4.16 | 1.0 | 1.0 |  |  |  |  | 10% | 8% | 9%
4 | O=C(Nc1ccc(F)nc1)C1CCCN1c1nc2c(c(Nc3cc(C4CCCC4)[nH]n3)n1)CCCC2 (single isomer, unassigned) [Compound 15a, 1-(4-(5-cyclopentyl-1H-pyrazol-3-ylamino)-5,6,7,8-tetrahydroquinazolin-2-yl)-N-(6-fluoropyridin-3-yl)pyrrolidine-2-carboxamide] | 0.70 | 1.0 | 1.0 | 0.89 | 1.3 | 1.3 | 0.92 | 1.3 | 1.3 | 0.59 | 0.8 | 0.8 |  | −2% | 4% | 1% |  |  | 
